Experimental data: article PMC5809559, “DYRK1A inhibition and cognitive rescue in a Down syndrome mouse model are induced by new fluoro-DANDY derivatives” (Scientific Reports, 2018)

Tests used:
KB cells = assay: KB cell proliferation / cytotoxicity (CellTiter-Blue); format: cell-based; conditions: Homo sapiens, KB, 72 h, 72 h
Procedure: Cancer cell lines were obtained from the American Type Culture Collection (Rockville, MD, USA) and were cultured according to the supplier’s instructions. Briefly, human KB epidermal carcinoma cells were grown in Dulbecco minimal essential medium (DMEM) containing 4.5 g/L glucose supplemented with 10% fetal calf serum (FCS) and 1% glutamine, 100 UI penicillin, 100 µg/mL streptomycin and 1.5 µg/mL fungizone and maintained at 37 °C in a humidified atmosphere containing 5% CO2. Cell viability was assessed using Promega CellTiter-Blue TM reagent according to the manufacturer’s instructions. Cells were seeded in 96-well plates (5 × 10^3 cells/well) containing […]. After 24 h of culture, the cells were supplemented with […] of the studied compound dissolved in DMSO (less than 0.1% in each preparation). After 72 h of incubation, […] of resazurin was added for 2 h before recording fluorescence (λex = 560 nm, λem = 590 nm) using a Victor microtiter plate fluorimeter (Perkin-Elmer, USA).

Ts65Dn mice = assay: Morris water maze spatial learning in Ts65Dn and WT mice; format: in vivo
Source text: Ts65Dn mice, the best-characterized and most widely used mouse model of DS, are trisomic for a segment of chromosome 16 extending between genes Mrp139 and Znf295 and containing approximately 92 orthologues of human chromosome 21 genes[42] including the Dyrk1a gene. […] Mice were trained for a total of 5 days to learn a fixed spatial goal location in the maze. […] In this paradigm, learning occurred when mice succeeded in decreasing their traveled distances after repeated training trials.
Male Ts65Dn (n = 8) mice and euploid wild-type (WT) littermates (n = 10) were purchased from the Jackson Laboratory (Bar Harbor, Maine, USA). As the recessive retinal degeneration 1 mutation Pde6brd1 in the original Ts65Dn mice causes blindness in homozygotes, we used an alternative strain (SN 5252) that is wild-type for Pde6b, thereby preventing retinal degeneration. Housing conditions comprised a standard cage (air-controlled system) with ad libitum food and water and a 12 h light/dark cycle. Mice received at least one week of habituation to the animal facility, followed by three days of handling (three minutes per mouse per day). […] Treatment was continued during the MWM protocol (mice being injected 30 min before each daily session).
Vehicle consisted of an identical composition without compound 5a.
A white pool with a diameter of 150 cm was filled with water made opaque with non-toxic white paint (Acusol OP301, Rohm and Haas Company, Landskrone, Sweden) and kept at a constant temperature (20–21.5 °C). A 9-cm diameter platform was placed in the south-east (SE) quadrant of the pool, 1 cm under the water surface. The light intensity in the experimental room was kept constant at 70 Lux. Mice were habituated to the room for at least 30 min before starting each daily session. The acquisition phase comprised 5 days of training, four trials per day with an inter-trial interval of at least 20 min to minimize motor fatigue. The order of release positions in the pool was pseudo-randomly at the four cardinal points and changed every day to maximize spatial allocentric training and formation of a “cognitive map”. Each trial ended as soon as the mouse found the platform or after a maximum of 90 s, after which the animal was gently manually guided to the platform. Mice were left on the platform for 20 s before they were gently dried with a towel and individually placed in a cage with paper towels for further drying. The animals returned to their homecage after 5 min.
ANY-maze Video Tracking System (Stoelting, USA) was used to record all trials. Calculated measures included 1) thigmotaxis (percent distance traveled in the 10 cm wide peripheral annulus of the pool) indicative of unsuccessful spatial strategy to locate the platform and 2) the Corrected Integrated Pathway Length (CIPL) an unbiased measure of distance-to-platform travelled taking into account the animal’s speed and the initial distance from the goal for each starting position.

In the case of `Oc1ccc(-c2cnc3[nH]cc(-c4ccc(F)cc4)c3c2)cc1O` [Compound 5a, 3-(4-fluorophenyl)-5-(3,4-dihydroxyphenyl)-1H-pyrrolo[2,3-b]pyridine], the inhibition at 10 µM (KB cells; 10^−5 M, read-out: % Growth inhibition 10^−5 M) is reported as under 50%, the inhibition at 1 µM (KB cells; 10^−6 M, read-out: % Growth inhibition 10^−6 M) is reported as 0% and the “change of thigmotaxis between vehicle and 5a conditions” value (Ts65Dn mice; Ts65Dn mice, 20 mg/kg i.p.) is reported as −12.9%. For the same compound, the “spatial learning performance (CIPL) in Morris water maze” value (Ts65Dn mice; Ts65Dn mice, 20 mg/kg i.p. daily, vs vehicle, p < 0.05) was “significant improvement of performance”, the “swim speed in Morris water maze” value (Ts65Dn mice; Ts65Dn mice, 20 mg/kg i.p., comparison with 5a-treated WT mice p > 0.99) was “restored normal swim speed” and the “change of thigmotaxis between vehicle and 5a conditions” value (Ts65Dn mice; WT mice, 20 mg/kg i.p.) was −6.5%. For the same compound, the “effect on Morris water maze performance” value (Ts65Dn mice; wild type mice, 20 mg/kg i.p. daily, vs vehicle) was “no observable effect”.
